Reference: the supplement of paper PMC12463676, “Small-molecule dissolution of stress granules by redox modulation benefits ALS models” (Nature Chemical Biology, 2025)

Legend:
lipoamide = compound: NC(=O)CCCCC1CCSS1 [lipoamide]; experiment: thermal stability z-score vs DMSO; higher = more thermally stabilized by treatment; details: HeLa, lipoamide concentration 100 µM
Description: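 Cellular thermal proteome profiling in HeLa cells. Cells were treated with 100 µM lipoamide for 1 h, with or without 1 mM arsenate for a further 1 h, then heated to ten temperatures (37-66.3 °C), and soluble protein was quantified by TMT mass spectrometry relative to 0.1% DMSO controls. The thermal stability score (sum of log2 fold changes minus the abundance score) was transformed to a z-score; mean of n = 3 experiments.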

potassium arsenate = compound: O=[As]([O-])(O)O.[K+] [potassium arsenate]; experiment: as above; details: HeLa; arsenate concentration 1 mM
Description: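 Cellular thermal proteome profiling in HeLa cells treated with 1 mM arsenate for 1 h (DMSO pretreatment), heated to ten temperatures (37-66.3 °C). Soluble protein was quantified by TMT mass spectrometry relative to DMSO controls; the thermal stability score was transformed to a z-score; mean of n = 3 experiments.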

[1] = arsenate co-treatment: 1 mM arsenate 1 h
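Further: each temperature applied for 3 min, abundance score taken as mean log2 fold change at the two lowest temperatures, z-score obtained by mean subtraction and division by SD.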

Sequence of UniProt Q06136 (Q06136 whole entry): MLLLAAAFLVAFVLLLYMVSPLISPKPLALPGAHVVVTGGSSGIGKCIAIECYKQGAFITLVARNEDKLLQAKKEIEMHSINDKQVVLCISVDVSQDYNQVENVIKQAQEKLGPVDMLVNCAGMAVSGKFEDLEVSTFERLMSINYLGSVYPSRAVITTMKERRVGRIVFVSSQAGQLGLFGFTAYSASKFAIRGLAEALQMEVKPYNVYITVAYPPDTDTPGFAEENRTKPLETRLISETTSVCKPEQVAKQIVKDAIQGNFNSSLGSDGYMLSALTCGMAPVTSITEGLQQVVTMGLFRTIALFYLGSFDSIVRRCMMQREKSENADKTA
Sequence of UniProt O43929 (O43929 whole entry): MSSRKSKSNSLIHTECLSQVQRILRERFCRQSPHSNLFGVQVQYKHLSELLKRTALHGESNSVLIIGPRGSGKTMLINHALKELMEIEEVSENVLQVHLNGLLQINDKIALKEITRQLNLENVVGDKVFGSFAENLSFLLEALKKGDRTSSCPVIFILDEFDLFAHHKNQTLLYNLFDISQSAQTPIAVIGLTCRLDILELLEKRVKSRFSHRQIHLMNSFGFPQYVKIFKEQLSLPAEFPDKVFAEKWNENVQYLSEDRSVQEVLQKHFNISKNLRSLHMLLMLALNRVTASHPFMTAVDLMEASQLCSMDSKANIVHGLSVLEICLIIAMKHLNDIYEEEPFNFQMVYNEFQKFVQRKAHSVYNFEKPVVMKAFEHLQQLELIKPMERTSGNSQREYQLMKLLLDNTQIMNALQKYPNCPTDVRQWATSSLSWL
Sequence of UniProt P05387 (P05387 whole entry): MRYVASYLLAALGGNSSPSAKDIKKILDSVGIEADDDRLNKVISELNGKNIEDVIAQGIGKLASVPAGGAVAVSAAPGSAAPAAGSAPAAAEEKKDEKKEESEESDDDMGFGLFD
Sequence of UniProt Q9BT17 (Q9BT17 whole entry): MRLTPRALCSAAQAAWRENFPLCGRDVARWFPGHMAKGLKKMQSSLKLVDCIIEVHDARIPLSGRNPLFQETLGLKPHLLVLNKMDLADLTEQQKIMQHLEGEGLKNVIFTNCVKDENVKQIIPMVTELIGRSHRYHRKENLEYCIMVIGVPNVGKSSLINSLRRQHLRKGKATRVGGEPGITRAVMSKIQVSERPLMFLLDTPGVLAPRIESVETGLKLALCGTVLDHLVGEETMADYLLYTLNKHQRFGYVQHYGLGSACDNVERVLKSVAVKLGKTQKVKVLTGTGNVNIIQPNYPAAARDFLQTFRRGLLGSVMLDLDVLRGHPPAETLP
Sequence of UniProt Q9H2J4 (Q9H2J4 whole entry): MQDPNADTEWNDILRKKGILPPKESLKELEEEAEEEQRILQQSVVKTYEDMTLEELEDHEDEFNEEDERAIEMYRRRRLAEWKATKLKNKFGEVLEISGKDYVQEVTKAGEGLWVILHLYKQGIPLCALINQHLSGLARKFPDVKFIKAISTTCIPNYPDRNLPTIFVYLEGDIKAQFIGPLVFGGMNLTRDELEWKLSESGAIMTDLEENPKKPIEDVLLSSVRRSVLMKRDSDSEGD
Sequence of UniProt Q6PJ69 (Q6PJ69 whole entry): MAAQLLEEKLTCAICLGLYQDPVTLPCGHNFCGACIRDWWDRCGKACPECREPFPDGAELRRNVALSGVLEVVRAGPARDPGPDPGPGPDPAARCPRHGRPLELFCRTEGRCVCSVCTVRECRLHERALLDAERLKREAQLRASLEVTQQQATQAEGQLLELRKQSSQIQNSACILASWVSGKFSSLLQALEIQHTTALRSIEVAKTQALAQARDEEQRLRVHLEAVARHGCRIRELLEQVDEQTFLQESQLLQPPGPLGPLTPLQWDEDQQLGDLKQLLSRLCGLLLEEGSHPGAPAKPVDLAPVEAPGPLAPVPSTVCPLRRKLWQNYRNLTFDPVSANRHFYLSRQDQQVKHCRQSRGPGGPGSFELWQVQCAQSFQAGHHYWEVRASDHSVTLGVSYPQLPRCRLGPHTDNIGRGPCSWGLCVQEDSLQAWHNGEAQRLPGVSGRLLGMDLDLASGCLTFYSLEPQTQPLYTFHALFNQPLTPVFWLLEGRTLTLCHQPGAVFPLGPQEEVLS
Sequence of UniProt Q9Y5Q0 (Q9Y5Q0 whole entry): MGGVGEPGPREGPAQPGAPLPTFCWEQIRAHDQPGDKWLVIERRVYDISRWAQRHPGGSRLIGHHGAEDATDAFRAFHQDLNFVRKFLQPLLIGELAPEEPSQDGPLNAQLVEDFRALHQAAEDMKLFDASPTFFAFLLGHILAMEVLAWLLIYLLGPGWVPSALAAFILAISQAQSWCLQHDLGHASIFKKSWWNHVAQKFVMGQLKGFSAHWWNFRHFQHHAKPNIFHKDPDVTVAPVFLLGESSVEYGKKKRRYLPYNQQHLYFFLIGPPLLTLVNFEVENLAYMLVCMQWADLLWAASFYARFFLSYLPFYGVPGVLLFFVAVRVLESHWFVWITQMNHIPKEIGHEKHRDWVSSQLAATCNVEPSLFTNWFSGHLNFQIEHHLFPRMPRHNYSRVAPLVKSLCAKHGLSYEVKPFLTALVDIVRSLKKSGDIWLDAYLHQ
Sequence of UniProt Q00013 (Q00013 whole entry): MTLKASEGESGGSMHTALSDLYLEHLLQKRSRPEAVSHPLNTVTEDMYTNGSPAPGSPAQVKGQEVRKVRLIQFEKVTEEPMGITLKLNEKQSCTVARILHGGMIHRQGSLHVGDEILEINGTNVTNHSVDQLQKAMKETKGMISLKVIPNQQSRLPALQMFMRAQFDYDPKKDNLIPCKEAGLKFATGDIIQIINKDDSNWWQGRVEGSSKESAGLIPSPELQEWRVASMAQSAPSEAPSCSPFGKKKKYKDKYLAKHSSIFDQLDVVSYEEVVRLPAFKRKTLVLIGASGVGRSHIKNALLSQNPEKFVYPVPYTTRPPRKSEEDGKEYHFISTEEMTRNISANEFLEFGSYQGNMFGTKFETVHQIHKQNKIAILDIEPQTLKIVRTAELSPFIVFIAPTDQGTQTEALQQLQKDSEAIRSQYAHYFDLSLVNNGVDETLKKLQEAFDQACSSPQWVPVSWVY
Sequence of UniProt O14641 (O14641 whole entry): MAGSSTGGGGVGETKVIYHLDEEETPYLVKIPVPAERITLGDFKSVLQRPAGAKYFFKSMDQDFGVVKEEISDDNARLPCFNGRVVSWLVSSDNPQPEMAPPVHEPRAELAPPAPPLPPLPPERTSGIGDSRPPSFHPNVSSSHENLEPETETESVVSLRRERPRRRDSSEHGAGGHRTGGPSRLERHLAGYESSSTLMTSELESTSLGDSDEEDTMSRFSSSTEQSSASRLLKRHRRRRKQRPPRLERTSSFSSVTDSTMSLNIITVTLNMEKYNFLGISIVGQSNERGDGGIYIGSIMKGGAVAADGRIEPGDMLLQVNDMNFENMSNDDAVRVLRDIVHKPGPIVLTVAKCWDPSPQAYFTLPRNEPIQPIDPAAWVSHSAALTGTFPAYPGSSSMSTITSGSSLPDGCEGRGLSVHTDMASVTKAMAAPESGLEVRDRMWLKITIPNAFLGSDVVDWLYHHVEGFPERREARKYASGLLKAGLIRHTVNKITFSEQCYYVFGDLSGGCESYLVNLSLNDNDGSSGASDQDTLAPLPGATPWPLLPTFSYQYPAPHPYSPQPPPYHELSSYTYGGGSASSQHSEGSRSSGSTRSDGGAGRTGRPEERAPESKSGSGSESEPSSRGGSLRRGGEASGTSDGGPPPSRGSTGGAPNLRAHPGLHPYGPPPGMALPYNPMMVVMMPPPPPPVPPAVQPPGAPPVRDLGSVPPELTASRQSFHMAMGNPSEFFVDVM
Sequence of UniProt Q8N461 (Q8N461 whole entry): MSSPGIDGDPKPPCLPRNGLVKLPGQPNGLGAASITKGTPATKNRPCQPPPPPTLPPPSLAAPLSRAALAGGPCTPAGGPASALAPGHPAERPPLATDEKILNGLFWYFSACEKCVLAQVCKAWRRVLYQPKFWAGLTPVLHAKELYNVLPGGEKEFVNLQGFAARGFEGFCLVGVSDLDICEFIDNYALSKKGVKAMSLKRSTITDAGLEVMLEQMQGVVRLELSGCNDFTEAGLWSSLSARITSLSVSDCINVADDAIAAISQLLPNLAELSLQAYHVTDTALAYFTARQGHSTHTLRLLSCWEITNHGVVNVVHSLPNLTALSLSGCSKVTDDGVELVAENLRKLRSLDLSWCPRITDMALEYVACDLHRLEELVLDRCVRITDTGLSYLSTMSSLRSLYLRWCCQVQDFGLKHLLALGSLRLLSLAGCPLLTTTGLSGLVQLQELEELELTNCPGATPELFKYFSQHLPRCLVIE
Sequence of UniProt Q13421 (Q13421 whole entry): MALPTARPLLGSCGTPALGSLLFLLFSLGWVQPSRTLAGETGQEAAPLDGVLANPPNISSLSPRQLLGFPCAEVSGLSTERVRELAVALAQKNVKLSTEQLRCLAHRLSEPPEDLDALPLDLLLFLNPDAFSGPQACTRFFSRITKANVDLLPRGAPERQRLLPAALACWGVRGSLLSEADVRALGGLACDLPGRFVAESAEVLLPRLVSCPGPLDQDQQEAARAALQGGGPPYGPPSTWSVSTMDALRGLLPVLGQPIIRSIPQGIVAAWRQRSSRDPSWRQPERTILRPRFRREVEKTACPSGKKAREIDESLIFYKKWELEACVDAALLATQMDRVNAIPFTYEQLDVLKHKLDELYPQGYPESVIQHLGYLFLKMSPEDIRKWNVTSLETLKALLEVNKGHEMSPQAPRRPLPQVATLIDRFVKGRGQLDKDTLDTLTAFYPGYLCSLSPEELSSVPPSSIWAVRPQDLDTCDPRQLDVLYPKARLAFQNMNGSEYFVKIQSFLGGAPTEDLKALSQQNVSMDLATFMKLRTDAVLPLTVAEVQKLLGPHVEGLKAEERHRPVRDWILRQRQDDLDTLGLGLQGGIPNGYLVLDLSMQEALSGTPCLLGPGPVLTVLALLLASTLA
Sequence of UniProt Q9NR33 (Q9NR33 whole entry): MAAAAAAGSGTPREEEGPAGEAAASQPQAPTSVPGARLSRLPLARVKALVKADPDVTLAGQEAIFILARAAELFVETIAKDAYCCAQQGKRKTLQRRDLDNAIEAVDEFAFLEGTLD

Target	thermal stability z-score (lipoamide; [1])	thermal stability z-score (lipoamide; arsenate co-treatment: none)	thermal stability z-score (potassium arsenate)
TUFM (UniProt P49411)	-2.05	-1.11	-1.29
RABGGTA (UniProt Q92696)	-0.0918	-0.138	-0.000862
NDUFS7 (UniProt O75251)	0.142	0.157	0.149
TRAPPC4 (UniProt Q9Y296)	-0.271	0.0129	-0.0725
C19ORF70|MIC13	0.265	0.131	0.22
ARPC2 (UniProt O15144)	-0.317	-0.205	-1.15
ANAPC1 (UniProt Q9H1A4)	0.11	0.139	0.0453
POLE4 (UniProt Q9NR33)	0.919	0.928	-1.07
NACC1 (UniProt Q96RE7)	-0.376	-0.495	-0.423
UGDH (UniProt O60701)	-0.0997	0.267	1.03
GGNBP2 (UniProt Q9H3C7)	0.141	0.168	-1.84
SMARCD1 (UniProt Q96GM5)	-0.0223	0.0841	-0.164
OMA1 (UniProt Q96E52)	-0.791	-1.46	-0.431
PDCL3 (UniProt Q9H2J4)	-0.0813	0.0164	-0.174
ABCD3 (UniProt P28288)	-0.0141	-0.0329	-0.13
ORC4 (UniProt O43929)	-0.121	-0.0936	-0.113
TRIM65 (UniProt Q6PJ69)	-0.203	-0.225	-0.189
TTC37 (UniProt Q6PGP7)	-0.601	-0.234	-0.0411
FBXL16 (UniProt Q8N461)	-0.137	0.0698	-0.0763
HACD2 (UniProt Q6Y1H2)	-0.673	-0.4	0.798
DPY19L1 (UniProt Q2PZI1)	-0.0328	-0.259	-0.259
TPRG1L (UniProt Q5T0D9)	-0.302	0.421	0.921
GNB1L (UniProt Q9BYB4)	0.757	-0.25	-0.589
EHBP1 (UniProt Q8NDI1)	0.0509	0.183	-0.166
TTC21B (UniProt Q7Z4L5)	-0.223	-0.505	-0.277
G3BP1 (UniProt Q13283)	0.523	0.664	0.753
CLTCL1 (UniProt P53675)	0.147	0.15	0.858
DVL2 (UniProt O14641)	-0.0654	-0.194	-0.113

Target	thermal stability z-score (lipoamide; [1])	thermal stability z-score (lipoamide; arsenate co-treatment: none)	thermal stability z-score (potassium arsenate)
MSLN (UniProt Q13421)	-0.583	-0.696	-2.44
DDX19A (UniProt Q9NUU7)	0.865	1.2	0.954
ZNF703 (UniProt Q9H7S9)	0.173	0.148	0.019
RALGAPA1 (UniProt Q6GYQ0)	-0.102	-0.115	-2.14
SAAL1 (UniProt Q96ER3)	0.357	-0.345	0.336
HSD17B4 (UniProt P51659)	0.258	0.497	0.201
RPLP2 (UniProt P05387)	1.56	1.34	0.225
PLK1 (UniProt P53350)	-0.0395	-0.233	-0.584
ALYREF (UniProt Q86V81)	0.585	0.0941	-0.0562
KDSR (UniProt Q06136)	0.0293	0.264	0.275
TRAPPC1 (UniProt Q9Y5R8)	0.425	0.512	0.484
FIP1L1 (UniProt Q6UN15)	0.903	0.265	-1.73
SFN (UniProt P31947)	0.524	0.0759	-0.012
GOLIM4 (UniProt O00461)	-0.589	-0.17	0.283
ITFG2 (UniProt Q969R8)	1.01	0.534	-0.266
KIF5B (UniProt P33176)	0.397	0.256	1.17
MOB1B|MOB1A	1.02	0.33	0.896
FADS3 (UniProt Q9Y5Q0)	-0.431	0.482	-0.618
THG1L (UniProt Q9NWX6)	0.578	0.85	0.463
MTG1 (UniProt Q9BT17)	0.0673	0.0916	0.195
TTC17 (UniProt Q96AE7)	-0.85	-0.317	0.453
POLR3G (UniProt O15318)	-0.603	-0.505	-0.356
TMED7 (UniProt Q9Y3B3)	-0.983	-0.909	0.0944
MPP1 (UniProt Q00013)	-0.0663	-0.0569	-0.163
ELP2 (UniProt Q6IA86)	0.0198	-0.186	-0.24
DHRSX (UniProt Q8N5I4)	0.396	0.418	-0.643
ABCB10 (UniProt Q9NRK6)	0.329	0.173	-0.034
